Columns and labels:
Brd4 bromodomain 1 = molecular target: T1, Brd4 bromodomain 1 (Homo sapiens, UniProt O60885); test: Inhibition of tetra-acetylated histone H4 binding to BET bromodomains (TR-FRET); design: key: Active: Compounds with an IC50 value less than 30 μM were deemed to be active.; Not Active: Compounds with an IC50 value less than 30 μM were deemed to be active; details: first bromodomain of Brd4, tetra-acetylated histone H4 peptide
T1 construct: made in house; host or cells: E. coli BL21(DE3)
Outline: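 TR-FRET with N-terminally His-tagged bromodomains (200 nM, E. coli-expressed, Ni affinity and SEC-purified) and biotinylated tetra-acetylated histone H4 peptide (25–50 nM), detected with Eu-cryptate streptavidin and XL665 anti-His antibody. Buffer 30 mM HEPES pH 7.4, 320 mM KF, 0.08% BSA, 0.2% DMSO; 2 h RT. IC50 from decrease in 665/620 nm ratio.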

c-myc = test: Inhibition of c-myc expression in cancer cell lines (mRNA, real-time PCR); format: cell-based; design: key: Active: Compounds with an IC50 value less than 30 μM were deemed to be active; details: Human AML MV4-11 cells, 3 hours
Outline: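 MV4-11 cells (2.5×10^4) exposed to compound or 0.1% DMSO for 3 h at 37° C, then lysed for mRNA isolation. c-myc and cyclophilin cDNAs co-amplified by duplex RT real-time PCR. IC50 from dose-response curve.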

Human AML MV-4-11 cells = test: Inhibition of cell proliferation in cancer cell lines (CellTiter Aqueous One); format: cell-based; design: key: Active: Compounds with an IC50 value less than 30 μM were deemed to be active.; Not Active: Compounds with an IC50 value less than 30 μM were deemed to be active; details: 72 hours
Outline: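 Exponentially growing MV-4-11 cells were treated immediately with two-fold compound dilutions from 30 µM to 0.2 µM in triplicate for 72 h at 37 °C. Viability was read by MTS (CellTiter Aqueous One) absorbance at 490 nm after 3-4 h; % proliferation vs DMSO gave IC50.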

hIL-6 mRNA = test: Inhibition of hIL-6 mRNA transcription in LPS-stimulated U937 macrophages; format: cell-based, human; design: key: Active: Compounds with an IC50 value less than 30 μM are deemed to be active; details: U937 differentiated into macrophages, 1 h pretreatment, lipopolysaccharide 3 h
Outline: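 U937 cells differentiated 3 days with 60 ng/mL PMA, pretreated 1 h with compound, then stimulated with […] E. coli LPS for 3 h at 37° C. hIL-6 mRNA quantified by one-step real-time RT-PCR, Ct normalised to internal control and expressed as fold induction relative to control.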

hApoA-1 mRNA = test: Up-regulation of hApoA-1 mRNA transcription in Huh7 cells; format: cell-based, human; design: key: Active: Compounds with an EC170 value less than 30 μM are deemed to be active.; Not Active: Compounds with an EC170 value less than 30 μM are deemed to be active; details: 48 hrs treatment, ApoA-I mRNA
Method: In this example, ApoA-I mRNA in tissue culture cells was quantitated to measure the transcriptional up-regulation of ApoA-I when treated with a compound of the present disclosure.
Huh7 cells ([…] per well) were plated in a 96-well plate using 100 μL DMEM per well, (Gibco DMEM supplemented with penicillin/streptomycin and 10% FBS), 24 h before the addition of the compound of interest. After 48 hrs treatment, the spent media was removed from the Huh-7 cells and placed on ice (for immediate use) or at −80° C. (for future use) with the “LDH cytotoxicity assay Kit II” from Abcam. The cells remaining in the plate were rinsed with 100 μL PBS.
Then 85 μL of cell lysis solution was added to each well and incubated for 5-10 minutes at room temperature, to allow for complete cell lysis and detachment. mRNA was then prepared using the “mRNA Catcher PLUS plate” from Life Technologies, according to the protocol supplied. After the last wash, as much wash buffer as possible was aspirated without allowing the wells to dry. Elution Buffer (E3, 80 μL) was then added to each well. mRNA was then eluted by incubating the mRNA Catcher PLUS plate with Elution Buffer for 5 minutes at 68° C., and then 1 minute at 4° C. Catcher plates with mRNA eluted were kept on ice for use or stored at −80° C.
The eluted mRNA isolated was then used in a one-step real-time PCR reaction, using components of the Ultra Sense Kit together with Life Technologies primer-probe mixes. Real-time PCR data was analyzed, using the Ct values, to determine the fold induction of each unknown sample, relative to the control (that is, relative to the control for each independent DMSO concentration).
Compounds with an EC170 value less than 30 μM are deemed to be active.

Compound | FRET activity (IC50 < 30 μM) (Brd4 bromodomain 1) | c-myc activity (IC50 < 30 μM) (c-myc) | cell proliferation activity (IC50 < 30 μM) (Human AML MV-4-11 cells) | IL-6 activity (IC50 < 30 μM) (hIL-6 mRNA) | ApoA-1 Activity (EC170 < 30 μM) (hApoA-1 mRNA) | melting point
COc1cc(OC)c2c(=O)[nH]c(-c3cccc(-c4ccc(C(=O)N(C)C)cc4)n3)nc2c1 [Example 20, 4-(6-(5,7-Dimethoxy-4-oxo-3,4-dihydroquinazolin-2-yl)pyridin-2-yl)-N,N-dimethylbenzamide] | Active | Active | Not Active | Active | Active | 217 to 219 °C
COc1cc(OC)c2c(=O)[nH]c(-c3ccc(OCCO)c(-c4ccc(C(=O)N(C)C)cc4)n3)nc2c1 [Example 23, 4-(6-(5,7-Dimethoxy-4-oxo-3,4-dihydroquinazolin-2-yl)-3-(2-hydroxyethoxy)pyridin-2-yl)-N,N-dimethylbenzamide] | Active | Active | Not Active | Active | Active | 
COc1cc(OC)c2c(=O)[nH]c(-c3ccc(OCCO)c(-c4ccc(S(C)(=O)=O)cc4)n3)nc2c1 [Example 24, 2-(5-(2-Hydroxyethoxy)-6-(4-(methylsulfonyl)phenyl)pyridin-2-yl)-5,7-dimethoxyquinazolin-4(3H)-one] | Active | Not Active | Not Active | Active | Active | > 300 °C
COc1cc(OC)c2c(=O)[nH]c(-c3ccc(OCCNC(C)C)c(-c4ccc(C(=O)N(C)C)cc4)n3)nc2c1 [Example 26, 4-(6-(5,7-Dimethoxy-4-oxo-3,4-dihydroquinazolin-2-yl)-3-(2-(isopropylamino)ethoxy)pyridin-2-yl)-N,N-dimethylbenzamide] | Active | Active | Active | Active | Active | 214 to 215 °C
COc1cc(OC)c2c(=O)[nH]c(-c3ccc(OCCN4CCCC4)c(-c4ccc(S(C)(=O)=O)cc4)n3)nc2c1.Cl [Example 29, 5,7-Dimethoxy-2-(6-(4-(methylsulfonyl)phenyl)-5-(2-(pyrrolidin-1-yl)ethoxy)pyridin-2-yl)quinazolin-4(3H)-one hydrochloride] | Active | Active | Active | Active | Active | 211 to 213 °C
COc1cc(OC)c2c(=O)[nH]c(-c3ccc(OCCO)c(-c4cccc([S+](C)[O-])c4)n3)nc2c1 (stereo not shown) [Example 37, 2-(5-(2-Hydroxyethoxy)-6-(3-(methylsulfinyl)phenyl)pyridin-2-yl)-5,7-dimethoxyquinazolin-4(3H)-one] | Active | Active | Not Active | Active | Active | 272 to 273 °C
COc1cc(OC)c2c(=O)[nH]c(-c3ccc(OCCO)c(-c4ccc([S+](C)[O-])cc4)n3)nc2c1 (stereo not shown) [Example 38, 2-(5-(2-Hydroxyethoxy)-6-(4-(methylsulfinyl)phenyl)pyridin-2-yl)-5,7-dimethoxyquinazolin-4(3H)-one] | Active | Active | Active | Active | Active | 281 to 282 °C
COc1cc(OC)c2c(=O)[nH]c(-c3ccc(OCCO)c(-c4ccc(S(C)(=O)=O)cc4C)n3)nc2c1 [Example 39, 2-(5-(2-Hydroxyethoxy)-6-(2-methyl-4-(methylsulfonyl)phenyl)pyridin-2-yl)-5,7-dimethoxyquinazolin-4(3H)-one] | Active | Active | Active | Active | Active | 
COc1cc(OC)c2c(=O)[nH]c(-c3ccc(OCCNC(C)C)c(-c4cccc([S+](C)[O-])c4)n3)nc2c1 (stereo not shown) [Example 40, 2-(5-(2-(Isopropylamino)ethoxy)-6-(3-(methylsulfinyl)phenyl)pyridin-2-yl)-5,7-dimethoxyquinazolin-4(3H)-one] | Active | Active | Active | Active | Active | 156 to 157 °C
CCS(=O)(=O)c1ccc(-c2nc(-c3nc4cc(OC)cc(OC)c4c(=O)[nH]3)ccc2OCCN2CCCC2)cc1 [Example 42, 2-(6-(4-(Ethylsulfonyl)phenyl)-5-(2-(pyrrolidin-1-yl)ethoxy)pyridin-2-yl)-5,7-dimethoxyquinazolin-4(3H)-one] | Active | Active | Active | Active | Not Active | 
CCS(=O)(=O)c1ccc(-c2nc(-c3nc4cc(OC)cc(OC)c4c(=O)[nH]3)ccc2OCCN2CCOCC2)cc1 [Example 43, 2-(6-(4-(Ethylsulfonyl)phenyl)-5-(2-morpholinoethoxy)pyridin-2-yl)-5,7-dimethoxyquinazolin-4(3H)-one] | Active | Active | Active | Active | Active | 
COc1cc(OC)c2c(=O)[nH]c(-c3ccc(OCCNC(C)C)c(-c4ccc(S(C)(=O)=O)cc4)c3)nc2c1 [Example 44, 2-(6-(2-(Isopropylamino)ethoxy)-4′-(methylsulfonyl)-[1,1′-biphenyl]-3-yl)-5,7-dimethoxyquinazolin-4(3H)-one] | Active | Active | Active | Active | Active | 

— patent US9765039B2, “Biaryl derivatives as bromodomain inhibitors” (Zenith Epigenetics Ltd., priority 2012, dated 2017)
